Experiments:
[1] = tested on: extrinsic and common coagulation pathways; experiment: prothrombin time (PT) test in rats after oral feeding; format: in vivo; settings: male rats; for International Normalized Ratio / Prothrombin Time: 5 mg/kg fed, blood collected after 24 hours, citrated plasma
Procedure: In this example, the anticoagulation effect of an exemplary (RS)-Warfarin was evaluated by an exemplary prothrombin time (PT) test. PT test may refer to an exemplary method carried out for monitoring oral anticoagulant therapy. PT test may measure the period of time it takes for a clot to form in a blood sample. In particular, PT test may measure the activity of exemplary coagulation factors involved in one or more exemplary extrinsic and common coagulation pathways. In one or more exemplary embodiments, prothrombin time may increase in response to inhibition of vitamin K-dependent procoagulant clotting factors (i.e., exemplary factors VII and X and prothrombin).
(§1) In an exemplary implementation, PT test may be accomplished in an animal model and may be compared to an exemplary commercial sample of Warfarin. In an exemplary implementation, 24 male rats were randomly separated into four groups, six rats in each group. Group I received distilled water (Control Group), Group II received an exemplary commercial Warfarin with an exemplary dose of 5 mg commercial Warfarin per weight of each rat (5 mg/kg), Group III received an exemplary synthesized (RS)-Warfarin with an exemplary dose of 5 mg (RS)-Warfarin per weight of each rat (5 mg/kg (Dose 1)), and Group IV received synthesized (RS)-Warfarin with an exemplary dose of 10 mg (RS)-Warfarin per weight of each rat (10 mg/kg (Dose 2)).
In an exemplary implementation, PT test was performed by feeding exemplary commercial Warfarin and Dose 1 of exemplary synthesized (RS)-Warfarin to Group II and Group III of rats, respectively. After 24 hours, exemplary blood samples were collected from two rats that were randomly selected from each of Group II and Group III. About 1.8 ml of each blood sample was added to exemplary tubes containing an exemplary anticoagulant, sodium citrate dihydrate. After centrifugation of each citrated blood sample at 2000 gr for 15 minutes, plasma was separated to be used for PT analysis. In an exemplary implementation, PT test may be performed by adding a mixture of thromboplastin and calcium to citrated plasma. Thromboplastin is a protein-phospholipid extract of tissue that may contain necessary phospholipids and tissue factors for promoting activation of factor X by factor VII. At the beginning of an exemplary anticoagulant therapy (e.g., Warfarin therapy), prothrombin time may reflect an exemplary depression of factor VII, because factor VII may have the shortest half-life among exemplary vitamin K-dependent factors. During an exemplary maintenance therapy, PT test may be sensitive to the decrease in prothrombin and factor X levels. PTs and international normalized ratios (INRs) were measured for Group II and Group III of rats.

[2] = clinical chemistry tests for toxicity (urea, creatinine, SGOT, SGPT, LDH) in rats; format: in vivo; settings: 5 mg/kg (Dose 1) and 10 mg/kg (Dose 2) vs commercial Warfarin 5 mg/kg, blood after 24 hours
Procedure: as §1
In this example, toxicity of exemplary (RS)-Warfarin was assessed using one or more exemplary clinical chemistry tests, such as urea test, creatinine test, SGOT (glutamic oxaloacetic transaminase) test, SGPT (glutamate-pyruvate transaminase) test, and LDH (lactate dehydrogenase) test. In an exemplary implementation, Group II, Group III, and Group IV of rats were fed with exemplary commercial Warfarin, Dose 1 of exemplary synthesized (RS)-Warfarin, and Dose 2 of exemplary synthesized (RS)-Warfarin, respectively. […]

SMILES | International Normalized Ratio [1] | Prothrombin Time [1] | urea, creatinine, SGOT, SGPT and LDH test results compared to rats fed with commercial Warfarin (FIG. 8) [2] | anticoagulant effect in comparison to commercial Warfarin (PTs and INRs) ([1]; 5 mg/kg each, 24 hours)
CC(=O)CC(c1ccccc1)c1c(O)c2ccccc2oc1=O (stereo not drawn) [Exemplary Commercial Warfarin, Warfarin] | 2.19 | 18.6 s |  | 
CC(=O)CC(c1ccccc1)c1c(O)c2ccccc2oc1=O (racemic) [Exemplary Synthesized (RS)-Warfarin, 4-hydroxy-3-(3-oxo-1-phenylbutyl)-2H-1-benzopyran-2-one] | 3.4 | 24.4 s | may not significantly differ | significantly increased anticoagulant effect

Reference: patent publication US11845735B2, “Method for synthesizing (RS)-Warfarin” (priority 2021, dated 2023)
